Common to all, as to format: in vivo
Assay [1] deals with castor-oil induced diarrhea. Description: castor oil induced diarrhea in rats. As to conditions: reference drug 5.0 mg/kg p.o., 2 mL castor oil after 60 min, observed 4 h. Here is the method:
The efficacy of composition as an antidiarrheal agent was evaluated using castor oil induced diarrhea. The castor oil model has been an extensively used pharmacological test to screen and evaluate antidiarrheal properties of drugs in rats. The liberation of ricinoleic acid from castor oil results in irritation and inflammation of intestinal mucosa, leading to release of prostaglandins, which stimulates motility and secretion (Pierce, N. F., Carpenter. C. C. J., Elliiot, H. Z. and Greenough, W. B., Effects of prostaglandins, Theophylline and cholera exotoxin upon transmucosalwater and electrolyte movement in canine jejunum, Gastroenterology, 1971; 60: 22-32). Castor oil is also reported to induce diarrhea by increasing the volume of intestinal content by prevention of the reabsorption of water. […] After 60 min each animal was given with 2 mL of castor oil by orogastric cannula, and placed in a separate cage and observed for 4 h defecation the characteristic diarrheal droppings were noted and recorded.
The castor oil model has been an extensively used pharmacological test to screen and evaluate antidiarrheal properties of drugs in rats. […] After 60 min each animal was given with 2 mL of castor oil by orogastric cannula, and placed in a separate cage and observed for 4 h defecation the characteristic diarrheal droppings were noted and recorded.

The subject of assay [2] is cold restrained stress (CRS) induced ulcers. Description: cold restrained stress (CRS) induced ulcers in rats. To be noted: positive control, dose given as 50, mean ± SEM, six rats.
Experimental: The effect of composition was further observed on cold resistant stress model of ulcer. […] Rats were starved for 48 hours, and the drinking solution was removed 1 hour before starting experiments. For cold-restraint s tress, the rats were restrained in individual close-fitting tubular wire-mesh cages at 4° C. […] At the end of 2 hours, all the rats were sacrificed. The ulcer index was scored, based upon the product of length and width of the ulcers present in the glandular portion of the stomach (mm^2/rat).
The effect of composition was further observed on cold resistant stress model of ulcer. […] Rats were starved for 48 hours, and the drinking solution was removed 1 hour before starting experiments. For cold-restraint stress, the rats were restrained in individual close-fitting tubular wire-mesh cages at 4° C.
Another assay deals with aspirin induced ulcers. Nature of the assay: aspirin induced ulcers in rats. As to conditions: aspirin 200 mg/kg, positive control, dose given as 50, mean ± SEM, six rats.
For assay [3], the system named is pylorus ligation induced ulcers. Nature of the assay: pylorus ligation (PL) induced ulcers in rats. As to conditions: positive control, dose given as 50, mean ± SEM, six rats.
Experimental: The effect of the composition as an antiulcer agent was further justified using pylorus ligation (PL)-induced ulcer model. […] The mentioned drugs were administered for a period of 5 days as described above and the rats were kept for 18 h fasting and care was taken to avoid coprophagy. Animals were anaesthetized and the abdomen was opened and pylorus ligation was done without causing any damage to its blood supply. After 4 h, stomachs were dissected out and cut open along the greater curvature and ulcers were scored in the glandular portion of the stomach as mentioned in aspirin induced ulcers.
The effect of the composition as an antiulcer agent was further justified using pylorus ligation (PL)-induced ulcer model.
The mentioned drugs were administered for a period of 5 days as described above and the rats were kept for 18 h fasting and care was taken to avoid coprophagy. Animals were anaesthetized and the abdomen was opened and pylorus ligation was done without causing any damage to its blood supply. After 4 h, stomachs were dissected out and cut open along the greater curvature and ulcers were scored in the glandular portion of the stomach as mentioned in aspirin induced ulcers.
The test system of the next assay is ethanol induced ulcers. Nature of the assay: ethanol induced ulcers in rats. As to conditions: EtOH 1 ml/200 g, positive control, dose given as 50, mean ± SEM, six rats.

Structures are written as SMILES. Where a name gives a salt, the structure may show the parent alone. Marks after values point to notes of the source that are not given here.

Experimental for aspirin induced ulcers: The effect of the composition on ulcers was evaluated using aspirin induced ulcer model. […] Ulcers were scored after 4 h. The animals were sacrificed and the stomach was then excised and cut along the greater curvature, washed carefully with 5.0 ml of 0.9% NaCl and ulcers were scored in the glandular portion of the stomach. Ulcer index was calculated by adding the total number of ulcers per stomach and the total severity of ulcers per stomach.
The effect of the composition on ulcers was evaluated using aspirin induced ulcer model.
Experimental for ethanol induced ulcers: Further, effect of the composition was evaluated using ethanolinduced ulcer model. […] The ulcer index was scored, based upon the product of length and width of the ulcers present in the glandular portion of the stomach (mm^2/rat).
The ulcer index was scored, based upon the product of length and width of the ulcers present in the glandular portion of the stomach (mm^2/rat).

On to `CCOC(=O)C1(c2ccccc2)CCN(CCC(C#N)(c2ccccc2)c2ccccc2)CC1` [DiphenoxylateHCl, diphenoxylate HCl], for which the “Total number of faecal matter” value in assay [1] was 19.
For `CNC(=C[N+](=O)[O-])NCCSCc1ccc(CN(C)C)o1` [Ranitidine, ranitidine], the “Ulcer Index” value is recorded as 6.9 ± 1.0^c mm^2/rat in assay [2], 7.6 ± 1.4^a in the assay with aspirin induced ulcers, 4.9 ± 1.3^b in assay [3] and 10.3 ± 2.8^a mm^2/rat with ethanol induced ulcers.

The values are drawn from US10076550B2, “Synergistic pharmaceutical composition for gastroinestinal disorders” (COUNCIL OF SCIENTIFIC & INDUSTRIAL RESEARCH, priority 2014, dated 2018).
